Source: ChEMBL document CHEMBL5143721, “Novel Hydroxychalcone-Based Dual Inhibitors of Aldose Reductase and α-Glucosidase as Potential Therapeutic Agents against Diabetes Mellitus and Its Complications” (J Med Chem, 2022)

Key:
[1] = Inhibition of Wistar rat kidney ALR1 using sodium D-glucuronate as substrate preincubated for 10 mins in presence of NADPH followed by substrate addition and measured after 4 mins; assay type: tissue-based
[2] = Inhibition of Wistar rat lens ALR2 using D,L-glyceraldehyde as substrate preincubated for 10 mins in presence of NADPH followed by substrate addition and measured after 4 mins; assay type: tissue-based
[3] = Antioxidant activity assessed as DPPH radical scavenging activity at 50 uM incubated for 30 mins by DPPH assay relative to control; assay type: functional
[4] = Antioxidant activity assessed as DPPH radical scavenging activity at 10 uM incubated for 30 mins by DPPH assay relative to control; assay type: functional
[5] = Antioxidant activity assessed as DPPH radical scavenging activity at 1 uM incubated for 30 mins by DPPH assay relative to control; assay type: functional
[6] = Antioxidant activity assessed as DPPH radical scavenging activity at 100 uM incubated for 30 mins by DPPH assay relative to control; assay type: functional
Brain [7] = assay: Antioxidant activity in rat brain homogenate assessed as inhibition of lipid peroxidation by measuring MDA concentration at 10 uM relative to control; assay type: functional, tissue-based; parameters: scale not given: the % may be the effect or the level left
Brain [8] = assay: Antioxidant activity in rat brain homogenate assessed as inhibition of lipid peroxidation by measuring MDA concentration at 50 uM by TBARS assay relative to control; assay type: functional, tissue-based; parameters: scale not given: the % may be the effect or the level left
Brain [9] = assay: Antioxidant activity in rat brain homogenate assessed as inhibition of lipid peroxidation by measuring MDA concentration at 100 uM by TBARS assay relative to control; assay type: functional, tissue-based; parameters: scale not given: the % may be the effect or the level left
Rattus norvegicus [10] = organism: Rattus norvegicus; assay: Selectivity index, ratio of IC50 for Wistar rat kidney ALR1 to IC50 for Wistar rat lens ALR2
[11] = Antioxidant activity assessed as DPPH radical scavenging activity at 5 uM incubated for 30 mins by DPPH assay relative to control; assay type: functional
[12] = Inhibition of Saccharomyces cerevisiae Alpha-glucosidase using p-nitrophenyl glucopyranoside as substrate preincubated for 5 mins followed by substrate addition and measured for 30 mins
Brain [13] = assay: Antioxidant activity in rat brain homogenate assessed as inhibition of lipid peroxidation by measuring MDA concentration at 5 uM by TBARS assay relative to control; assay type: functional, tissue-based; parameters: scale not given: the % may be the effect or the level left
Rattus norvegicus [14] = organism: Rattus norvegicus; assay: Non competitive inhibition of Wistar rat lens ALR2 using D,L-glyceraldehyde as substrate up to 200 uM by Lineweaver-Burk plot analysis; assay type: tissue-based
Saccharomyces cerevisiae = assay: Non competitive inhibition of Saccharomyces cerevisiae alpha-glucosidase using p-nitrophenyl glucopyranoside as substrate up to 200 uM by Lineweaver-Burk plot analysis
Brain [15] = assay: Antioxidant activity in rat brain homogenate assessed as inhibition of lipid peroxidation by measuring MDA concentration at 1 uM by TBARS assay relative to control; assay type: functional, tissue-based; parameters: scale not given: the % may be the effect or the level left
[16] = Octanol/buffer distribution coefficient, log D of compound at pH 7.4 incubated for 24 hrs by shake flask based HPLC method; assay type: physicochemical
Rattus norvegicus [17] = assay: Antidiabetic activity against STZ-induced diabetic Sprague-Dawley rat model assessed as reduction in fasting blood glucose level at 80 mg/kg, IG administered once daily for 28 days; assay type: functional; parameters: scale not given: the % may be the effect or the level left; details: time 28 day
[18] = In vivo inhibition of ALR2 in STZ-induced diabetic Sprague-Dawley rat model assessed as reduction in ALR2 activity in lens at 80 mg/kg, IG administered once daily for 28 days relative to control; assay type: functional; parameters: scale not given: the % may be the effect or the level left; details: time 28 day
Rattus norvegicus [19] = assay: Antidiabetic activity against STZ-induced diabetic Sprague-Dawley rat model assessed as reduction in fasting blood glucose level at 100 mg/kg, IG administered once daily for 28 days; assay type: functional; parameters: scale not given: the % may be the effect or the level left; details: time 28 day

IC50 [1] [µM]	IC50 [2] [µM]	Ratio IC50 (Rattus norvegicus [10])	IC50 [12] [µM]	SMILES	Activity [4] [%]	Activity (Brain [8]) [%]	Activity (Brain [9]) [%]	further results
> 100	> 100	–	–	O=C(/C=C/c1ccc(O)c(Cl)c1)c1cccc2[nH]c(=O)oc12	–	–	–	–
10.3	0.13	79.3	4.13	CC(C)=CCCn1c(=O)oc2c(C(=O)/C=C/c3ccc(O)c(O)c3)cccc21	94.4	92.5	96.4	Activity [3]: 97%; Activity [5]: 44.7%; Activity (Brain [13]): 63.2%; Activity [6]: 98.5%; Km (Rattus norvegicus [14]): 585 µM; Activity (Brain [7]): 73%; Km (Saccharomyces cerevisiae): 449 µM; Activity (Brain [15]): 34.2%; Activity [11]: 89.8%; logD at 24 h [16]: 1.04
5.29	0.119	44.5	–	CC(/C=C1\SC(=S)N(CC(=O)O)C1=O)=C\c1ccccc1	–	–	–	Activity (Rattus norvegicus [17]): 20.9%; Activity [18]: 62.1%; logD at 24 h [16]: 0.21
> 100	> 100	–	–	O=C(/C=C/c1ccc(O)c(C(F)(F)F)c1)c1cccc2[nH]c(=O)oc12	–	–	–	–
–	72.2	–	–	COC(=O)Cn1c(=O)oc2cc(/C=C/c3ccc(O)cc3)ccc21	–	–	–	–
> 100	> 100	–	–	O=C(/C=C/c1cccc(O)c1)c1cccc2[nH]c(=O)oc12	–	–	–	–
> 100	> 100	–	–	COC(=O)Cn1c(=O)oc2c(C(=O)/C=C/c3ccc(OC)cc3)cccc21	–	–	–	–
7.84	0.111	70.7	71.2	COC(=O)Cn1c(=O)oc2c(C(=O)/C=C/c3cc(F)c(O)c(F)c3)cccc21	9.1	20.9	28	Activity [3]: 35%; Activity [6]: 52.9%; logD at 24 h [16]: 1.07
> 100	0.201	> 498	41.5	CC(C)=CCn1c(=O)oc2c(C(=O)/C=C/c3ccc(O)cc3)cccc21	7.1	27	38.7	Activity [3]: 18.3%; Activity [6]: 39.1%; logD at 24 h [16]: 1.65
3.75	3.74	1.19	105	O=C(/C=C/c1ccc(O)c(F)c1)c1cccc2[nH]c(=O)oc12	–	–	–	–
> 100	0.226	> 415	55.4	COC(=O)Cn1c(=O)oc2c(C(=O)/C=C/c3ccc(O)cc3)cccc21	10.6	24.1	38	Activity [3]: 30%; Activity [6]: 46.3%; logD at 24 h [16]: 1.46
4.75	0.097	49	59.9	CC(C)=CCn1c(=O)oc2c(C(=O)/C=C/c3cc(F)c(O)c(F)c3)cccc21	9.1	25.9	38.3	Activity [3]: 35%; Activity [6]: 52.9%; logD at 24 h [16]: 1.13
> 100	0.826	> 121	–	COC(=O)Cn1c(=O)oc2c(C(=O)/C=C/c3ccc(O)cc3OC)cccc21	–	–	–	–

Second part, the compound before the results:

SMILES	IC50 [1] [µM]	IC50 [2] [µM]	Ratio IC50 (Rattus norvegicus [10])	IC50 [12] [µM]	Activity [4] [%]	Activity (Brain [8]) [%]	Activity (Brain [9]) [%]	further results
COc1ccc(/C=C/C(=O)c2cccc3[nH]c(=O)oc23)cc1	> 100	> 100	–	–	–	–	–	–
COC(=O)Cn1c(=O)oc2c(C(=O)/C=C/c3ccc(O)c(OC)c3)cccc21	> 100	13.2	> 7.59	–	50.3	43	66.1	Activity [3]: 82.2%; Activity [5]: 14.8%; Activity [6]: 92.4%; Activity (Brain [7]): 23.6%; Activity [11]: 25.4%
COc1cc(O)ccc1/C=C/C(=O)c1cccc2[nH]c(=O)oc12	> 100	16.7	> 5.98	–	–	–	–	–
O=C(/C=C/c1cc(F)c(O)c(F)c1)c1cccc2[nH]c(=O)oc12	1.41	0.491	2.87	107	–	–	–	–
COC(=O)Cn1c(=O)oc2c(C(=O)/C=C/c3ccc(O)c(Cl)c3)cccc21	> 100	12.2	> 8.82	–	–	–	–	–
O=C(/C=C/c1ccc(O)c(O)c1)c1cccc2[nH]c(=O)oc12	2.12	3.54	0.595	63.7	–	–	–	–
COc1cc(/C=C/C(=O)c2cccc3[nH]c(=O)oc23)ccc1O	> 100	> 100	–	–	–	–	–	–
COC(=O)Cn1c(=O)oc2c(C(=O)/C=C/c3ccc(O)c(C(F)(F)F)c3)cccc21	> 100	56.1	> 1.78	–	–	–	–	–
Cc1c(C)c2c(c(C)c1O)CCC(C)(C(=O)O)O2 (centres undefined)	–	–	–	–	86.3	47.5	79.2	Activity [5]: 8.63%; Activity (Brain [13]): 15.5%; Activity (Brain [7]): 31.9%; Activity (Brain [15]): 3.39%; Activity [11]: 46.7%
COC(=O)Cn1c(=O)oc2c(C(=O)/C=C/c3ccc(O)c(F)c3)cccc21	> 100	0.518	> 193	57.2	5.09	25.4	40.1	Activity [3]: 19.2%; Activity [6]: 40.1%; logD at 24 h [16]: 1.31
COC(=O)Cn1c(=O)oc2ccc(/C=C/c3ccc(O)cc3)cc21	–	> 100	–	–	–	–	–	–
CN(C)C(=N)NC(=N)N [METFORMIN]	–	–	–	–	–	–	–	Activity (Rattus norvegicus [19]): 38.5%
O=C(/C=C/c1ccc(O)cc1)c1cccc2[nH]c(=O)oc12	> 100	2.85	> 35.1	104	–	–	–	–
O=c1[nH]c2cccc(/C=C/c3ccc(O)cc3)c2o1	–	495	–	–	–	–	–	–
COC(=O)Cn1c(=O)oc2c(C(=O)/C=C/c3cccc(O)c3)cccc21	> 100	> 100	–	–	–	–	–	–
COC(=O)Cn1c(=O)oc2c(/C=C/c3ccc(O)cc3)cccc21	–	11.7	–	–	–	–	–	–
CC(C)=CCn1c(=O)oc2c(C(=O)/C=C/c3ccc(O)c(F)c3)cccc21	> 100	0.517	> 193	52.1	12.7	22.4	33.3	Activity [3]: 32.5%; Activity [6]: 53.8%; logD at 24 h [16]: 1.64
